In patent US20120093951A1 (priority 2009, published 2012):
Read-outs that look alike come from different tables or passages of the source.

How the values were obtained:
[1] = system: H1N1 subtype serum swine influenza virus; type: in vivo, yellow chickens; details: 10 mg/day injected once per day for 7 days
[2] = system: H1N1 serum subtype of swine influenza virus (SIV); type: in vivo, yellow chickens; details: 10 mg/day once per day for 11 days
[3] = system: swine influenza virus A/California/4/2009 and A/Hong Kong/xx/2008; type: cell-based, MDCK cells (Madin-Darby Canine Kidney Cells)

SMILES	Death Rate ([1]; 30 infected chickens)	Effective Rate ([1]; 30 infected chickens)	Number of Death ([1]; of 30 infected chickens)	Death Rate ([2]; 40 infected chickens)	Effective Rate ([2]; 40 infected chickens)	Number of Death ([2]; of 40 infected chickens)	Number of Detectable viruses/Total Number ([3]; Day 2, Tamiflu 10 μmol/ml)	Number of Detectable viruses/Total Number ([3]; Day 2, Tamiflu 100 μmol/ml)	Number of Detectable viruses/Total Number ([3]; Day 3, Tamiflu 10 μmol/ml)	Number of Detectable viruses/Total Number ([3]; Day 3, Tamiflu 100 μmol/ml)
CC(N)C12CC3CC(CC(C3)C1)C2 (stereo not shown) [Group C, rimantadine]	63.3%^	36.6%	19	62.5%^	37.5%	25				
CCOC(=O)C1=C[C@@H](OC(CC)CC)[C@H](NC(C)=O)[C@@H](N)C1 [Tamiflu, Oseltamivir phosphate]							1/2	0/2	2/2	2/2
